Experimental data taken from US12318361B2, “Methods for treating cardiovascular diseases” (Olatec Therapeutics LLC, priority 2017, dated 2025).

Key:
[1] = target: T1, NLRP3 inflammasome (association of caspase-1 with NLRP3) (Homo sapiens, UniProt Q96P20); experiment: FRET analysis of NLRP3 inflammasome assembly in human monocyte-derived macrophages after LPS/ATP; format: cell-based; conditions: 50 μM, HMDM from 4 donors, P<0.01
T1 construct: endogenous in cells; host or cells: human monocyte-derived macrophages (HMDM) from 4 healthy donors
Protocol: Human monocyte-derived macrophages (HMDM) were cultured on glass slides for 5 days with GM-CSF, stimulated for 4 hours with […] LPS and then treated with 5 mM ATP for one hour. Dapansutrile (OLT1177™, 50 μM) was added to the cells either 30 minutes following LPS stimulation or at the same time as ATP.
After washing with PBS, the cells were fixed and permeabilized with 70-30 acetone-methanol as described by Gamboni et al, Physiol Rep., 2 (7), 2014. Briefly, cells were placed in a humidified slide chamber blocked for 1 hour in 10% normal donkey serum (Jackson Immunologicals, Westgrove, PA). After removal of the donkey serum, the primary antibodies to human NLRP3 (Cryo-2, AdipoGen San Diego, CA), human caspase-1 (sc-515, Santa Cruz Biotechnology) or isomolar, species-specific anti-IgG (R&D Systems) were added and kept overnight at 4° C. […] FRET images were acquired using a Marianas Imaging Station using a Zeiss 639 Plan-Apochromat objective (1.4 N/A), a Sutter Xenon light source and a Cooke SensiCam as described by Gamboni et al. The corrected FRET was calculated as FRET=Transfer-Fd/D donor-Fa/Aa acceptor as reported by Berney et al, Biophys J., 84:3992-4010, 2003. […]

[2] = system: adult CD1 male mice, acute myocardial infarction; experiment: Acute myocardial infarction (30 min ischemia, 24 h reperfusion), infarct sparing effect, Example 8; format: in vivo; conditions: 60 mg/kg IP immediately after reperfusion, vs vehicle
Protocol: An acute myocardial infarction in adult CD1 male mice was induced by performing a transient surgical ligation of the left coronary artery for 30 minutes followed by reperfusion for 24 hours: 3 mice received OLT1177™ (60 mg/kg) given intraperitoneally immediately after reperfusion and 8 mice received an equal volume of vehicle (NaCl 0.9%). After 24 hours, left ventricular fractional shortening, a surrogate for cardiac systolic function, was measured, using transthoracic echocardiography. After the echocardiogram, the mice were prepared for infarct size measurement using the Triphenyl-Tetrazolium-Chloride (TTC) and Evans Blue technique and then sacrificed: the area of the heart considered not ischemia (non-risk area) appeared blue, the area of the heart that was at risk but viable appeared red, the infarct myocardium appeared pale-white. The left panel of FIG. 6 depicts the TTC/Evans Blue staining of one mouse treated with vehicle and one with OLT1177™: it is apparent that the area of infarct is much larger in the vehicle.

T1 sequence (Q96P20 whole entry): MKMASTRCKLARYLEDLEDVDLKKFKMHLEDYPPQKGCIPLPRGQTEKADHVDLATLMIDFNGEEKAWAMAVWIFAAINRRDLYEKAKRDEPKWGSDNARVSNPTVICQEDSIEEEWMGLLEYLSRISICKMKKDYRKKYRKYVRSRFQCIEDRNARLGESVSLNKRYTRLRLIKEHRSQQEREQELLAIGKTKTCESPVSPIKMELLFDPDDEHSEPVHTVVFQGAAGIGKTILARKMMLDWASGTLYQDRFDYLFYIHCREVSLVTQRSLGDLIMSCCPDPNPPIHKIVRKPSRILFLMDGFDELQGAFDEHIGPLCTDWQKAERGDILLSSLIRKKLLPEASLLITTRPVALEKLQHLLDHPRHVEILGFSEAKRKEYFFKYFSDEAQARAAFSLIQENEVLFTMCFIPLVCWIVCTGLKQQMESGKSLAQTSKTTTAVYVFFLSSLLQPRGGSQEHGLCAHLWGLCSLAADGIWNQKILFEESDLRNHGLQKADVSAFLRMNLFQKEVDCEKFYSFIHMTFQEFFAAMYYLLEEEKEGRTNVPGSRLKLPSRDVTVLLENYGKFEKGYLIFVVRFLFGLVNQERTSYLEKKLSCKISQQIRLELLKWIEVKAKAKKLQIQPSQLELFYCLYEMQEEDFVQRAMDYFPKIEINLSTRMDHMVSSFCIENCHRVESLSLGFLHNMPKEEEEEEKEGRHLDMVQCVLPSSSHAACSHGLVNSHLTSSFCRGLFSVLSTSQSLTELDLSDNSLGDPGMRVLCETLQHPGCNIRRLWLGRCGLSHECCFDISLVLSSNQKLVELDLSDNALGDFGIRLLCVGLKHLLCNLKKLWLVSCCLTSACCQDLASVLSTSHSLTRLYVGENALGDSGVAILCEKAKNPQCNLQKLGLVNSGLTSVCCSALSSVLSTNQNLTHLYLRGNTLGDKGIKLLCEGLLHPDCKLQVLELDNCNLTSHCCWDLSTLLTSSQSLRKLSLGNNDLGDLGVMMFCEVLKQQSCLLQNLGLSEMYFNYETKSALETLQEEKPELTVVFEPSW

## CS(=O)(=O)CCC#N [OLT1177™, 3-methanesulfonyl-propionitrile]
[1]
  association of caspase-1 with NLRP3 (FRET intensity): reduced
[2]
  infarct size as percentage of the area-at-risk: significantly smaller
  left ventricular systolic function (fractional shortening): preservation
